# Non-standard residues stand in square brackets, D forms with d. No end group written: not given here.
# Legend:
# [1] = system: ghrelin-induced MAP kinase phosphorylation in IEC-GHS-R cells (rat GHS-R); test: MAP kinase phosphorylation in IEC-GHS-R cells (western blot, phospho-MAPK antibody); type: cell-based
# Protocol: To examine whether an anti-ghrelin IgG or a GHS-R antagonist [D-lys-3]-GHRP-6 blocks ghrelin-mediated responses in experimental colitis, experiments were first performed to test the efficiency of these reagents using in vitro assays. Since ghrelin was previously shown to activate MAP kinase in human HepG2 cells, the effect of the anti-ghrelin antibody or [D-lys-3]-GHRP-6 on ghrelin-induced MAP kinase activation was determined. For these experiments, rat full-length GHS-R cDNA was cloned from rat brain RNA and then subcloned into the retroviral expression vector pMMP. The retroviruses expressing rat GHS-R were used to infect normal rat intestinal epithelial cell line IEC-6 cells (from ATCC). The resulting cell line was named IEC-GHS-R cells.
# The response of the IEC-GHS-R to rat ghrelin was determined using this MAP kinase assay. Briefly, serum starved IEC-GHS-R cells were treated with ghrelin (10^−7 M) for various times. […]
# To determine the effect of an anti-ghrelin IgG or a GHS-R antagonist [D-lys-3]-GHRP on ghrelin-induced MAPK phosphorylation, IEC-GHS-R cells were pretreated with the anti-ghrelin IgG (2 and 5 μg/ml) or with normal rabbit IgG or [D-lys-3]-GHRP-6 (1-20 nM) for 10 minutes and then treated with rat ghrelin for 5 minutes. MAP kinase phosphorylation was then determined.
# [2] = system: toxin A-induced intestinal fluid secretion; set-up: species or system mice; settings: mouse, in vivo, ip
# food intake = food intake induced by centrally injected ghrelin / GHS-R-induced; cited from earlier work
# GHS-R = target: T1, GHS-R (Rattus norvegicus, UniProt O08725); settings: cited from earlier work
# T1 construct: host or cells: CHO cells stably expressing rat GHS-R (inferred, same citation)
# T1 sequence (O08725 whole entry): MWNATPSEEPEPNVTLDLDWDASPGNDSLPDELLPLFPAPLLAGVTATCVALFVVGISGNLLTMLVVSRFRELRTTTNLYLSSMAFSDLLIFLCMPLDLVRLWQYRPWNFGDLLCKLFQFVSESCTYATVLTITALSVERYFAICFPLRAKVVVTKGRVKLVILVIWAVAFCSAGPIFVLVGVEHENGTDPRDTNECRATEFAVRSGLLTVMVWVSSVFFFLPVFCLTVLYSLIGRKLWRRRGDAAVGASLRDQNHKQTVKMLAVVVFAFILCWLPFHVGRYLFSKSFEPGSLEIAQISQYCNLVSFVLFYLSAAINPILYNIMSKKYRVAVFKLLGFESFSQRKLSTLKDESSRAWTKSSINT
# [3] = system: IL-8 promoter activity in NCM460 cells expressing human GHS-R; test: IL-8 promoter-luciferase assay in GHS-R-expressing NCM460 cells; type: cell-based
# Protocol: Construction of a reporter construct containing 1521 bp (nucleotides −1481 to +40) of the promoter region of human IL-8 gene has been described previously (Warny, M. et al., J. Clin. Invest., 105:1147-1156 (2000)). IL-8 reporter constructs containing mutations in NF-κB, AP-1 or C/EBP sites have been described previously (Zhao, D. et al., J. Biol. Chem., 276:44464-44471 (2001)). […] Firefly and Renilla luciferase activities in cell extracts were measured using Dual-Luciferase Reporter Assay System (Promega). The relative luciferase activity were then calculated by normalizing IL-8 promoter-driven Firefly luciferase activity to control Renilla luciferase activity. […]
# NCM460 cells were transiently transfected with pMMP-HA-GHSR or a control plasmid pMMP-LacZ along with IL-8 promoter-luciferase construct plus an internal control construct. The transfected cells were stimulated with ghrelin for 6 hours and the IL-8 promoter activity was measured.
# To examine whether ghrelin-induced IL-8 gene expression involves the NF-κB pathway, NCM-GHS-R cells were transiently transfected with IL-8-luciferase construct along with an internal control plasmid. […] IL-8 promoter activity was measured. […]
# [4] = system: IL-8 secretion in NCM-GHS-R cells; test: IL-8 secretion (ELISA) in NCM-GHS-R cells; type: cell-based, human; settings: serum starved NCM-GHS-R cells, ghrelin 10^−7 M, various times
# [5] = system: NCM460, HT29 and Caco-2 cells; test: IL-8 gene expression in colonic epithelial cell lines with endogenous ghrelin receptor; type: cell-based, human; settings: NCM460, HT29, Caco-2 with very low endogenous ghrelin receptor
# [6] = target: human GHS-R with HA epitope (pMMP-HA-GHSR), transiently expressed in NCM460 cells (human) (UniProt Q92847); test: cell-based or functional assay
# Chain of human GHS-R with HA epitope (pMMP-HA-GHSR), transiently expressed in NCM460 cells (human) (Q92847 whole entry): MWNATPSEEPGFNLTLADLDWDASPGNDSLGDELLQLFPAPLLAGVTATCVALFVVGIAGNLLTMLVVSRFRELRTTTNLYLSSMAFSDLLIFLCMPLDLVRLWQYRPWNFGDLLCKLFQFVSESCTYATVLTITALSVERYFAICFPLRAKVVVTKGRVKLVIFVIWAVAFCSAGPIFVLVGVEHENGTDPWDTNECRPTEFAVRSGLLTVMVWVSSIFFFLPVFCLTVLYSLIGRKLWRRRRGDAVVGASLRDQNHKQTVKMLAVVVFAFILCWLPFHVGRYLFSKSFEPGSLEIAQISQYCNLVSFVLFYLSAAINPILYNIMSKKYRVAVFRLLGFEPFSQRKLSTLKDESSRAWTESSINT
compound,measurement,setting,value
"His-D-Trp-D-Lys-Trp-D-Phe-Lys-NH2 (H[dW][dK]W[dF]K-NH2; N-terminus assumed; SMILES NCCCC[C@H](NC(=O)[C@@H](Cc1ccccc1)NC(=O)[C@H](Cc1c[nH]c2ccccc12)NC(=O)[C@@H](CCCCN)NC(=O)[C@@H](Cc1c[nH]c2ccccc12)NC(=O)[C@@H](N)Cc1c[nH]cn1)C(N)=O) [[D-lys-3]-GHRP-6, commercially available hexapeptide ghrelin receptor (GHS-R) antagonist]",inhibition of ghrelin-induced MAPK phosphorylation,"[1]; pretreated 10 minutes (anti-ghrelin IgG 2 and 5 μg/ml; [D-lys-3]-GHRP-6 1-20 nM), then rat ghrelin 5 minutes",inhibited ghrelin-induced MAPK phosphorylation in a dose-dependent manner
same,basal fluid secretion in buffer-exposed loops,[2],no significant effect
same,inhibition of toxin A-induced fluid secretion,[2],approximately 50%
same,block of food intake,food intake,efficiently block
same,block of GHS-R-induced calcium response,GHS-R,efficiently block
O=C(/C=C/c1ccc(O)c(O)c1)OCCc1ccccc1 [CAPE],inhibition of ghrelin-induced IL-8 promoter activity,"[3]; NCM-GHS-R cells, 10 μg/ml CAPE 30 minutes pretreatment, ghrelin 10^−7 M 4 hours",inhibited ghrelin-induced IL-8 promoter activity
ghrelin,MAP kinase phosphorylation,"[1]; serum starved IEC-GHS-R cells, ghrelin 10^−7 M, various times",induces MAP kinase phosphorylation in a time-dependent manner
same,stimulation of IL-8 promoter activity,"[3]; NCM460 cells transiently transfected with pMMP-HA-GHSR, ghrelin for 6 hours",approximately 8 fold
same,IL-8 secretion in conditioned media,[4],significantly stimulates IL-8 secretion
same,IL-8 gene expression on stimulation,[5],does not mediate IL-8 gene expression
"ghrelin (species not stated, used on human NCM460-derived cells) (peptide)",IL-8 promoter activity (luciferase reporter),[6],8 fold

# — patent US20070025991A1, “Use of antagonists of ghrelin or ghrelin receptor to treat intestinal inflammation” (priority 2003, published 2007)
